Data taken from patent publication US5498624A, “Selected pyrazolyl derivatives” (Monsanto Company, priority 1995, dated 1996).

Tests used:
Venturia inaequalis [1] = test: In Vitro Apple Scab Assay (ASC In Vitro); assay type: cell-based; details: germ tube length
Experimental: A) Pathogen/Inoculum Production--A suspension of Venturia inaequalis conidia, adjusted to 150,000 spores/ml, is prepared using freshly harvested or frozen conidia. Apple seedlings, cv. McIntosh, are sprayed with this suspension and incubated in a high humidity chamber set at 20° C. with a 12 hour photoperiod for approximately four weeks. At maximum disease expression, a fine mist of deionized water is used to wash conidia from sporulating lesions and the resulting liquid/spore suspension is collected into glass vials and frozen at -80° C. for future use.
B) Compound Preparation--Water agar with 1.5% agar m/v is autoclaved to sterilization. Stock solutions of each compound of the present invention are made by solubilizing them in an appropriate solvent at a convenient concentration. Serial dilutions in solvent are made from this stock to execute the various test rates. When the molten agar is cool enough to pour, the compounds in solvent are dispensed into the agar such that the final concentration ratio of agar to solvent is 100:1. The agar is gently agitated and poured into petri plates, one plate per treatment. The standard used is 3-(difluoromethyl)-N-2,3-dihydro-1,1,3-trimethyl-1H-inden-4-yl)-1-Methyl-1H-Pyrazole-4-carboxamide as found in U.S. Pat. No. 5,093,347.
C) Test Execution--Twenty-four hours after pouring, the plates are ready for inoculation. The previously collected frozen spore suspension is thawed at room temperature and diluted to a concentration of 1×10^4 spores/ml with sterile water. Three drops of approximately 0.1 ml each of the suspension are placed into each plate in an equidistant configuration. The plates are then placed in a dark incubator set at 20° C.
D) Test Evaluation--Forty to forty-eight hours later, the lengths of the spore germ tubes are measured using an ocular lens scale on a binocular microscope. Ten germ tubes in a drop are measured and an average determined for that drop. This procedure is repeated for the other two drops. The values for the three drops are then averaged to give the mean for the treatment. Percent inhibition of germination is calculated using the following equation: % Inhibition=(avg. control length--avg. treatment length/avg. control length) X 100.

Septoria nodorum = test: Wheat Glume Blotch Foliar Assay, curative (WGB Cur); assay type: in vivo; details: application two days post-inoculation, * = averaged value
Experimental: A) Host Propagation--Winter wheat plants, cv. Caldwell, are grown in 5.7 cm^2 pots, three per pot, and maintained in a growth chamber set at 20° C., 80% RH with a 12 hour photoperiod.
B) Compound Preparation--A 1.0% stock solution of each of the compounds of the present invention is first prepared utilizing an appropriate solvent such as acetone, water or DMSO. This stock is then used to prepare the final spray solution which contains the compound at the desired dosage, eg 100 ppm and 20 ppm, acetone at 20% v/v, Tween®20 at .05% w/v, and water at about 80%. Commercial standard used is tebuconazole at equivalent rates.
C) Compound Application, Seedlings are sprayed at the two-leaf stage (GS 12) using a DeVilbiss Model 152 hand operated sprayer set at 15-20 psi. Six ml of the test solution per treatment are applied to three pots. In the protectant assay (EXAMPLE 8), the compound application is made two days pre-inoculation. In the curative assay (EXAMPLE 9), the compound is applied during a brief interruption of the disease incubation period two days post-inoculation. […]
E) Test Evaluation--Eight to ten days after removal from the high humidity chamber, or twelve to fourteen days after inoculation, treatments are evaluated by visually estimating the percentage of the leaf area (on the first leaf) covered with lesions. […] Percent disease, as well as percent control values are calculated. […]

Venturia inaequalis [2] = test: Apple Scab Foliar Assay (ASC Cur); assay type: in vivo; details: 20 ppm, sprayed 72 hours after inoculation, apple seedlings
Experimental: Apple Scab Foliar Assay Methods (ASC Cur)--This assay is that of Example 1 except for the sequence of the chemical application and pathogen inoculation events. One month old apple seedlings are inoculated as described. 72 hours later, the plants are removed from the mist chamber and sprayed with the test chemicals and then returned to the mist-chamber after 1 to 2 hours. Disease evaluation is made on day 8-12.

[3] = tested on: Erysiphe graminis f. sp. tritici; test: Wheat Powdery Mildew Foliar Curative Treatment (WPM Cur); assay type: in vivo; details: 20 ppm foliar curative, inoculation 48 hours prior to application
Experimental: A) Pathogen/Inoculum Production follow as per Example 2. (B) Host Propagation, (C) Compound Preparation and (D) Compound Application follow as per Example 1.
E) Inoculation/Incubation--Inoculation is accomplished as per Example 1, 48 hours prior to compound application. The incubation period is temporarily interrupted for chemical treatment, the plants are allowed to dry and then returned to the incubation chamber.
(G) Evaluation and (H) Data follow as per Example 1. The percent protection values for the compounds of the present invention are as set out in the Table below.

SMILES | ASC In vitro (A.I.) Activity Index (Venturia inaequalis [1]; 0.1 ppm in water agar) | ASC In vitro (A.I.) Activity Index (Venturia inaequalis [1]; 1.0 ppm in water agar) | WGB Cur percent control (Septoria nodorum; 20 ppm) [%] | WGB Cur percent control (Septoria nodorum; 100 ppm) [%] | ASC Cur percentage control (Venturia inaequalis [2]) [%] | WPM Cur percent disease control [3] [%]
C[C@@H]1CCC[C@H](c2ccccc2NC(=O)c2cn(C)nc2C(F)F)C1 (relative stereo) [Number 2, 1H-pyrazole-4-carboxamide, 3-(difluoromethyl)-1-methyl-N-[2-(-3-methylcyclohexyl)phenyl]-, cis-] | 3 | 3 |  |  |  | 
C[C@H]1CCC[C@H](c2ccccc2NC(=O)c2cn(C)nc2C(F)F)C1 (relative stereo) [Number 3, 1H-pyrazole-4-carboxamide, 3-(difluoromethyl)-1-methyl-N-[2-(3-methylcyclohexyl)phenyl]-, trans-] | 3 | 3 | 62 | 67 | 69 | 89
